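Five concentrations, 48 hours, 96-well plates. TGI: concentration producing complete growth inhibition.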

The first experiment concerns SN12K1 renal. In words: NCI tumour cell line growth inhibition, 48 h.
Molecule `CCCCCCCCCCCCCCCCCCOCC(COCCOCC[N+]1(CCCCCC(=O)[O-])CCCC1)Oc1ncccn1` (stereo unspecified) gave a TGI of 17.7 µM.

`COc1cc(C2c3cc4c(cc3[C@@H](Nc3ccc5c(c3)OCCO5)C3COC(=O)[C@H]23)OCO4)cc(OC)c1O` (stereo partly specified) showed a TGI of 9.19 µM.

Another experiment relates to MDA-N. Description: NCI tumour cell line growth inhibition, 48 h.
The molecule `COc1ccc2[nH]c(-c3ccc(O)cc3)cc(=O)c2c1` returned a TGI of over 100 µM.

Regarding `CCCCCCCCCCCCCCCCCCOCC(COCCOCC[N+]1(CCCCCC(=O)[O-])CCCC1)Oc1ncccn1` (stereo unspecified), the TGI was found to be 23.2 µM.

A further experiment concerns P388/ADR leukemia. Description: NCI tumour cell line growth inhibition, 48 h.
Take `CCCCCCCCCCCCCCCCCCOCC(COCCOCC[N+]1(CCCCCC(=O)[O-])CCCC1)Oc1ncccn1` (stereo unspecified): the TGI is 15.9 µM.

`COc1cc(C2c3cc4c(cc3[C@@H](Nc3ccc5c(c3)OCCO5)C3COC(=O)[C@H]23)OCO4)cc(OC)c1O` (stereo partly specified) gave a TGI of 1.25 µM.

The next experiment relates to LXFL 529 NSCLC. In words: NCI tumour cell line growth inhibition, 48 h.
`COc1ccc2[nH]c(-c3ccc(O)cc3)cc(=O)c2c1`: the TGI was over 100 µM.

For `CCOC(OC1=C(C#N)CCCC1)C(CC)[Se]c1ccccc1` (stereo unspecified), the TGI is 65.9 µM.

As for `O=S1CSSC1`, the TGI is 32.4 µM.

For the molecule `CN(C)C(=S)Nc1nnc(Nc2ccccc2)s1`, the TGI was over 100 µM.

In turn, `C[C@]12C/C(=C/O)C(=O)C(O)=C1CC[C@@H]1C2CC[C@@]2(C)C1CC[C@@H]2O` (stereo partly specified) yielded a TGI of 31.7 µM.

`COc1cc(C2c3cc4c(cc3[C@@H](Nc3ccc5c(c3)OCCO5)C3COC(=O)[C@H]23)OCO4)cc(OC)c1O` (stereo partly specified) came in with a TGI of over 100 µM.

The next experiment concerns PC-3 prostate. In words: NCI tumour cell line growth inhibition, 48 h.
In turn, `COc1ccc2[nH]c(-c3ccc(O)cc3)cc(=O)c2c1` registered a TGI of over 100 µM.

In turn, `CCCCCCCCCCCCCCCCCCOCC(COCCOCC[N+]1(CCCCCC(=O)[O-])CCCC1)Oc1ncccn1` (stereo unspecified) came in with a TGI of 15 µM.

`COc1cc(C2c3cc4c(cc3[C@@H](Nc3ccc5c(c3)OCCO5)C3COC(=O)[C@H]23)OCO4)cc(OC)c1O` (stereo partly specified): the TGI was over 100 µM.

The test system of a further experiment is SNB-78 CNS. In words: NCI tumour cell line growth inhibition, 48 h.
Turning to `COc1ccc2[nH]c(-c3ccc(O)cc3)cc(=O)c2c1`, the TGI is over 100 µM.

`CCOC(OC1=C(C#N)CCCC1)C(CC)[Se]c1ccccc1` (stereo unspecified) yielded a TGI of 89.7 µM.

Molecule `O=S1CSSC1` displayed a TGI of 62 µM.

For `CN(C)C(=S)Nc1nnc(Nc2ccccc2)s1`, the TGI is over 100 µM.

Take `C[C@]12C/C(=C/O)C(=O)C(O)=C1CC[C@@H]1C2CC[C@@]2(C)C1CC[C@@H]2O` (stereo partly specified): the TGI amounted to 47.3 µM.

Turning to `CCCCCCCCCCCCCCCCCCOCC(COCCOCC[N+]1(CCCCCC(=O)[O-])CCCC1)Oc1ncccn1` (stereo unspecified), the TGI was determined as 4.52 µM.

On to `COc1cc(C2c3cc4c(cc3[C@@H](Nc3ccc5c(c3)OCCO5)C3COC(=O)[C@H]23)OCO4)cc(OC)c1O` (stereo partly specified), for which the TGI was over 34.2 µM.

In a further experiment the test system is NCI/ADR-RES ovarian. In words: NCI tumour cell line growth inhibition, 48 h.
Regarding `CCCCCCCCCCCCCCCCCCOCC(COCCOCC[N+]1(CCCCCC(=O)[O-])CCCC1)Oc1ncccn1` (stereo unspecified), the TGI turned out to be 24.1 µM.

In turn, `COc1cc(C2c3cc4c(cc3[C@@H](Nc3ccc5c(c3)OCCO5)C3COC(=O)[C@H]23)OCO4)cc(OC)c1O` (stereo partly specified) showed a TGI of over 100 µM.

For the next experiment, the system named is RXF-631 renal. Description: NCI tumour cell line growth inhibition, 48 h.
`COc1ccc2[nH]c(-c3ccc(O)cc3)cc(=O)c2c1` yielded a TGI of over 100 µM.

The molecule `CCOC(OC1=C(C#N)CCCC1)C(CC)[Se]c1ccccc1` (stereo unspecified) returned a TGI of 26.2 µM.

On to `O=S1CSSC1`, for which the TGI was 29.8 µM.

Molecule `CN(C)C(=S)Nc1nnc(Nc2ccccc2)s1` registered a TGI of over 100 µM.

For `C[C@]12C/C(=C/O)C(=O)C(O)=C1CC[C@@H]1C2CC[C@@]2(C)C1CC[C@@H]2O` (stereo partly specified), the TGI was 48.8 µM.

`COc1cc(C2c3cc4c(cc3[C@@H](Nc3ccc5c(c3)OCCO5)C3COC(=O)[C@H]23)OCO4)cc(OC)c1O` (stereo partly specified) yielded a TGI of 3.51 µM.

A further experiment has as its system KM20L2 colon. In words: NCI tumour cell line growth inhibition, 48 h.
In turn, `COc1ccc2[nH]c(-c3ccc(O)cc3)cc(=O)c2c1` returned a TGI of over 18.6 µM.

`CCOC(OC1=C(C#N)CCCC1)C(CC)[Se]c1ccccc1` (stereo unspecified) had a TGI of 62.1 µM.

For `O=S1CSSC1`, the TGI was 52.5 µM.

In turn, `CN(C)C(=S)Nc1nnc(Nc2ccccc2)s1` gave a TGI of over 100 µM.

In turn, `C[C@]12C/C(=C/O)C(=O)C(O)=C1CC[C@@H]1C2CC[C@@]2(C)C1CC[C@@H]2O` (stereo partly specified) displayed a TGI of 54.6 µM.

For the molecule `CCCCCCCCCCCCCCCCCCOCC(COCCOCC[N+]1(CCCCCC(=O)[O-])CCCC1)Oc1ncccn1` (stereo unspecified), the TGI stood at 14.5 µM.

`COc1cc(C2c3cc4c(cc3[C@@H](Nc3ccc5c(c3)OCCO5)C3COC(=O)[C@H]23)OCO4)cc(OC)c1O` (stereo partly specified) registered a TGI of 9.05 µM.

The subject of a further experiment is P388 leukemia. Description: NCI tumour cell line growth inhibition, 48 h.
On to `CCCCCCCCCCCCCCCCCCOCC(COCCOCC[N+]1(CCCCCC(=O)[O-])CCCC1)Oc1ncccn1` (stereo unspecified), for which the TGI came out at 1.02 µM.

`COc1cc(C2c3cc4c(cc3[C@@H](Nc3ccc5c(c3)OCCO5)C3COC(=O)[C@H]23)OCO4)cc(OC)c1O` (stereo partly specified): the TGI amounted to 1.26 µM.

For another experiment, the system named is HOP-18 NSCLC. Description: NCI tumour cell line growth inhibition, 48 h.
Take `COc1ccc2[nH]c(-c3ccc(O)cc3)cc(=O)c2c1`: the TGI is over 29.9 µM.

`CCOC(OC1=C(C#N)CCCC1)C(CC)[Se]c1ccccc1` (stereo unspecified) showed a TGI of 54.1 µM.

On to `O=S1CSSC1`, for which the TGI was over 100 µM.

`CN(C)C(=S)Nc1nnc(Nc2ccccc2)s1` gave a TGI of over 100 µM.

The molecule `C[C@]12C/C(=C/O)C(=O)C(O)=C1CC[C@@H]1C2CC[C@@]2(C)C1CC[C@@H]2O` (stereo partly specified) returned a TGI of over 100 µM.

On to `CCCCCCCCCCCCCCCCCCOCC(COCCOCC[N+]1(CCCCCC(=O)[O-])CCCC1)Oc1ncccn1` (stereo unspecified), for which the TGI was found to be 13.7 µM.

Regarding `COc1cc(C2c3cc4c(cc3[C@@H](Nc3ccc5c(c3)OCCO5)C3COC(=O)[C@H]23)OCO4)cc(OC)c1O` (stereo partly specified), the TGI is over 100 µM.

Source of the values: PubChem BioAssay (NCI).
